The structures appear in SMILES notation.

Type in all cases: cell-based
The target in one test is T1, IKZF1 (Ikaros) (Homo sapiens, UniProt Q13422).
T1 construct: mScarlet (behind P2A) (C, cleaved yes); expressed in transfected cells
As to the kind of experiment: IKZF1 reporter degradation assay (HEK 293T IKZF1-mNeonGreen reporter cell line). Particulars: HEK 293T IKZF1 reporter cells, 24 hours incubation. An excerpt:
Polycistronic plasmids were constructed for the mammalian expression of fluorescent reporter fusions of human transcription factors IKZF1 (Ikaros), IKZF2 (Helios), and IKZF3 (Aiolos). The respective protein sequences had their C-terminal end joined to a GGGGS linker repeated three times followed by mNeonGreen, P2A sequence, and mScarlet. The DNA sequences of the open reading frames are as follows:
IKZF1, IKZF2, and IKZF3 constructs were cloned into the UCOE Hygromycin expression vectors (Millipore Sigma). Reporter constructs were transfected using cationic lipid reagents into adherent HEK 293T cells and stable integrants were selected by treatment with 200 μg/mL hygromycin B. Clonal populations were obtained from the population of stable integrants either by limiting dilution or fluorescence activated cell sorting.
The clonal stable cell lines were maintained under constant 200 μg/mL hygromycin B selection while being passaged for use in the degradation assays. […] The fluorescence intensity of the IKZF1/2/3-mNeonGreen (FITC channel) and mScarlet (PE channel) reporters were routinely analyzed by flow cytometry to confirm consistent expression levels between experiments.
The IKZF1/IKZF2/IKZF3 degradation assays were carried out by harvesting the HEK 293T reporter cell lines and resuspending the cells in media formulated for reduced background fluorescence (FluoroBrite; Thermo Fisher). The respective cell lines were seeded at a density of 4000 cells/well into black-walled 384-well optical grade assay tissue culture plates. The cells were incubated overnight at 37° C. to allow for attachment to the assay plate. Dilutions of the compounds were prepared in DMSO from 10 mM compound stocks. The assay plates were treated with appropriate concentrations of the compounds by dispensing the DMSO dilutions in quadruplicate wells with an upper limit of 0.5% final DMSO.
After 24 hours incubation with the compounds, the assay plates were imaged on an ImageXpress Pico microscopy system (cells maintained at 37° C. during imaging) to obtain the fluorescent readouts. The assay plates were imaged in the FITC and Tetramethylrhodamine (TRITC) channels to obtain the mNeonGreen fluorescence intensity (reporter degradation data) and mScarlet fluorescence intensity (for cell segmentation). 293T-IKZF1 and 293T-IKZF3 reporter cell lines were imaged with exposures of 500 milliseconds (ms) for both FITC and TRITC channels, while the 293T-IKZF2 reporter cell line was imaged with exposures of 1000 ms for FITC and 1250 ms for TRITC. The resulting data was analyzed with Cell Reporter Xpress software using the 2-channel cell scoring analysis with a “percent positive” readout. The TRITC channel was selected for the “nuclei” segmentation with a threshold of 20 while the FITC channel was selected for the “Marker 1” segmentation and a threshold of 100 for the IKZF1 and IKZF3 reporter lines. […] The minimum segmentation width was set to 6 micrometers and the maximum segmentation width was set to 15 micrometers for all cell lines. The DC50 calculations were determined by regression to best fit four-parameter logistic curves using GraphPad Prism.

For test [1], the target named is T2, IKZF2 (Helios) (Homo sapiens, UniProt Q96SW2+Q9UKS7).
T2 construct: Leu-Asp junction (codons ctcgac before the linker); mScarlet (behind P2A) (C, cleaved yes); expressed in transfected cells
T2 sequence (Q9UKS7 whole entry): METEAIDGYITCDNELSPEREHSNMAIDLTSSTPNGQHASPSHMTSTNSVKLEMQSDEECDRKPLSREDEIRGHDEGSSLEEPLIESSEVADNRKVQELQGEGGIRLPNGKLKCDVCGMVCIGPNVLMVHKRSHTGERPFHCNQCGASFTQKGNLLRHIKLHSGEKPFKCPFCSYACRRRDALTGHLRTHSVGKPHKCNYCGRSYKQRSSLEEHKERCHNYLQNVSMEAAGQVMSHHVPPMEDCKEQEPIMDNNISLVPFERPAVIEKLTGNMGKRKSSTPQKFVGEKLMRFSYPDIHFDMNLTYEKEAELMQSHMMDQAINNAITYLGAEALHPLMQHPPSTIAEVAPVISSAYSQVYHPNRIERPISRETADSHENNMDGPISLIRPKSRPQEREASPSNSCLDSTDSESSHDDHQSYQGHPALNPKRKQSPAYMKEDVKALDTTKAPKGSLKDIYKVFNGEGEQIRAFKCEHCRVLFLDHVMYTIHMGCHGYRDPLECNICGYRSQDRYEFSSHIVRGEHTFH
T2 sequence (Q96SW2 whole entry): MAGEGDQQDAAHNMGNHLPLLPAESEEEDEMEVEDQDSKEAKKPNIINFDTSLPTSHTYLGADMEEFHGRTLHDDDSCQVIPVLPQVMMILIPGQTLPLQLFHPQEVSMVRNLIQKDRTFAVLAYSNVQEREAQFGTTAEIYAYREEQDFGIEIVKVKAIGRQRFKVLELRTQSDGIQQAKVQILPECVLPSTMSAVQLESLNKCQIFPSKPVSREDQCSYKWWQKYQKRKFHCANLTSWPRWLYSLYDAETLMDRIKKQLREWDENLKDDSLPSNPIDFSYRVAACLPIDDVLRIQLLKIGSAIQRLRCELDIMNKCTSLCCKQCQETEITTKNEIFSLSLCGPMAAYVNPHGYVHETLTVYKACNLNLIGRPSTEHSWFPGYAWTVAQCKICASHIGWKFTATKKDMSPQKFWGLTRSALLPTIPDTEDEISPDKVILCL
T2 sequence (Q16531 whole entry partner): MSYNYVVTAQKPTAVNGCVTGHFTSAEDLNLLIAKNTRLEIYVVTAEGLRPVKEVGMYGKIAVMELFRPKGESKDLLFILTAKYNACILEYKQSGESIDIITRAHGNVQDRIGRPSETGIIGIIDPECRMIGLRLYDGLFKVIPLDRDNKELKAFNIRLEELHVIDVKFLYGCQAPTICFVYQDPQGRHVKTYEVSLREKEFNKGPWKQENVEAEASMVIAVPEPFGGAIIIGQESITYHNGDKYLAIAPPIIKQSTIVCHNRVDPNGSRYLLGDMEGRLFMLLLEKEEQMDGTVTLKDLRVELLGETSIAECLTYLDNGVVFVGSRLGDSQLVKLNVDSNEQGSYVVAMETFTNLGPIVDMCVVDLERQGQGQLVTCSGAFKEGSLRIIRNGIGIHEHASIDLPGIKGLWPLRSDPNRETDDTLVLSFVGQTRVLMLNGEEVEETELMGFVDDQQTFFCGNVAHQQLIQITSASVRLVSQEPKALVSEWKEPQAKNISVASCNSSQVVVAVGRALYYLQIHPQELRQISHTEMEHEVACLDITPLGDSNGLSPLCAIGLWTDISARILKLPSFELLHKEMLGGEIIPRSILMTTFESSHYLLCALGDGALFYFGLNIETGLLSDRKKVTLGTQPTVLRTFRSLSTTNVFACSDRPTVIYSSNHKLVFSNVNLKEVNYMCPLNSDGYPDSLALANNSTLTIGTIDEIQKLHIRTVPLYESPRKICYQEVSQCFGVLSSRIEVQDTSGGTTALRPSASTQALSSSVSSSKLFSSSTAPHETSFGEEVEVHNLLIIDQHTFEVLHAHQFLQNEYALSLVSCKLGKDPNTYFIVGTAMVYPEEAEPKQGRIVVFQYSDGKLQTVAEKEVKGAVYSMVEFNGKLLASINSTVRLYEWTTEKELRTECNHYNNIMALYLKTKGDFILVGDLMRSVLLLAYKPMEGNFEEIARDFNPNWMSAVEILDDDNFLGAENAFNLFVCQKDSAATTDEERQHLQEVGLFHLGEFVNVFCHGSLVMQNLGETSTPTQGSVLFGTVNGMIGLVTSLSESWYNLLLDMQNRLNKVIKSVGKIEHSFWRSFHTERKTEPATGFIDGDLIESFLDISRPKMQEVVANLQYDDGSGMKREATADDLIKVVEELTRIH
As to the kind of experiment: IKZF2 reporter degradation assay (HEK 293T IKZF2-mNeonGreen reporter cell line). Conditions: HEK-293T, 24 h, 1 μM compound, HEK 293T IKZF2 reporter cells, 24 hours incubation. The procedure, abridged:
(§1)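 In reporter HEK 293T clones, the FITC exposure was 1000 ms for the IKZF2 line and 500 ms for the IKZF1 and IKZF3 lines. Imaging followed 24 h of compound treatment, and percent-positive scoring was fitted to a four-parameter logistic curve for DC50.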

Test [2] deals with T3, IKZF2 (Helios) (Homo sapiens, UniProt Q9UKS7).
T3 construct: Leu-Asp junction (codons ctcgac before the linker); mScarlet (behind P2A) (C, cleaved yes); expressed in transfected cells
T3 sequence (Q9UKS7 whole entry): as the sequence (Q9UKS7 whole entry) above
T3 sequence (Q96SW2 whole entry, further chain): as the sequence (Q96SW2 whole entry) above
T3 sequence (Q16531 whole entry partner): as the sequence (Q16531 whole entry partner) above
Described as above. Particulars: HEK 293T IKZF2 reporter cells, 24 hours incubation. The procedure, abridged: as §1

For the next test, the target named is T4, IKZF3 (Aiolos) (Homo sapiens, UniProt Q9UKT9).
T4 construct: Leu-Asp junction (codons ctcgac before the linker); mScarlet (behind P2A) (C, cleaved yes); expressed in transfected cells
T4 sequence (Q96SW2 whole entry partner): as the sequence (Q96SW2 whole entry) above
T4 sequence (Q16531 whole entry partner): as the sequence (Q16531 whole entry partner) above
T4 sequence (Q9UKT9 whole entry): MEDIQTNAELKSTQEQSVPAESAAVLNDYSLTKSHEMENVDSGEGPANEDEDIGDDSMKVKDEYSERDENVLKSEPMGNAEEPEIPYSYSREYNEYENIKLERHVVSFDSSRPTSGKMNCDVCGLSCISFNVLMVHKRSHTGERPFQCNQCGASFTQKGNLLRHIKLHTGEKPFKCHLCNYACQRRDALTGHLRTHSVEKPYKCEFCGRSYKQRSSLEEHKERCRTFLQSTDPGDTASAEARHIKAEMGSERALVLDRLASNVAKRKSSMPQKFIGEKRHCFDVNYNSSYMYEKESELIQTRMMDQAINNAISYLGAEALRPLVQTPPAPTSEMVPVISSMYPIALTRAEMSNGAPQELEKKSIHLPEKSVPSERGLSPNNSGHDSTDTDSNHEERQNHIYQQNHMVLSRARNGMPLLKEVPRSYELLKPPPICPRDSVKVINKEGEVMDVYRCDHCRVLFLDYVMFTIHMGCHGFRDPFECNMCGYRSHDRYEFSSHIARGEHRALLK
As to the kind of experiment: IKZF3 reporter degradation assay (HEK 293T IKZF3-mNeonGreen reporter cell line). Conditions: HEK 293T IKZF3 reporter cells, 24 hours incubation. Summed up: as §1

T1 sequence (Q96SW2 whole entry partner): as the sequence (Q96SW2 whole entry) above
T1 sequence (Q16531 whole entry partner): as the sequence (Q16531 whole entry partner) above
T1 sequence (Q13422 whole entry): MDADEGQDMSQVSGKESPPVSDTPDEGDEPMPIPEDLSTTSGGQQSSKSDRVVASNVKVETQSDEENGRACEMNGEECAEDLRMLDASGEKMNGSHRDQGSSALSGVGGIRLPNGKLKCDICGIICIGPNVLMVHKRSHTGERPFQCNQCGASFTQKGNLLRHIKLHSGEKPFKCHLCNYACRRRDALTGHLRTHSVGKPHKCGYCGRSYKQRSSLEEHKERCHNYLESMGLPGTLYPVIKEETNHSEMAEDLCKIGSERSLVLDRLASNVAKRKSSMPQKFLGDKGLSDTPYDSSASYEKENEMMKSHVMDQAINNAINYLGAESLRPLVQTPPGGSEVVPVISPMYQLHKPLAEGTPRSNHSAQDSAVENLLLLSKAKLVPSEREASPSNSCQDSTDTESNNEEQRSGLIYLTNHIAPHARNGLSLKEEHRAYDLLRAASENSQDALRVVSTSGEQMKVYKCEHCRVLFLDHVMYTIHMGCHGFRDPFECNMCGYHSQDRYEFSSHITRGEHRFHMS

As a reminder, the DC50 is the concentration giving 50% degradation. A low value points to degradation at low concentration. In general, inhibition refers to the change of the read-out against control, counted positive when it falls. Higher therefore signals a response far below the control. Turning to `O=C1CCC(N2Cc3cc(OC4CCCCC4N4CC(c5cnc6ccccc6n5)C4)ccc3C2=O)C(=O)N1` (centres unmarked) [Compound 21-B, 3-(1-oxo-5-((2-(3-(quinoxalin-2-yl)azetidin-1-yl)cyclohexyl)oxy)isoindolin-2-yl)piperidine-2,6-dione], the DC50 at IKZF1 (Ikaros) was greater than 30 µM; at IKZF2 (Helios) [2] it was 0.0382 µM; on IKZF3 (Aiolos), greater than 30 µM. This molecule also returned an inhibition at 1 µM against IKZF2 (Helios) [1] of 72.5%.

For the molecule `COc1ncc(C2CN(C3CCCCC3Oc3ccc4c(c3)CN(C3CCC(=O)NC3=O)C4=O)C2)cn1` (centres unmarked) [Compound 76-B, 3-(5-((2-(3-(2-methoxypyrimidin-5-yl)azetidin-1-yl)cyclohexyl)oxy)-1-oxoisoindolin-2-yl)piperidine-2,6-dione], the 50% degradation concentration (DC50) at IKZF1 (Ikaros) was greater than 30 µM; on IKZF2 (Helios) [2], 0.0286 µM; at IKZF3 (Aiolos) it was greater than 30 µM. This molecule gave an inhibition at 1 µM against IKZF2 (Helios) [1] of 84.6%.

In the case of `Cc1cc(C2CN(C3CCCCC3Oc3ccc4c(c3)CN(C3CCC(=O)NC3=O)C4=O)C2)ccn1` (centres unmarked) [Compound 56-B, 3-(5-((2-(3-(2-methylpyridin-4-yl)azetidin-1-yl)cyclohexyl)oxy)-1-oxoisoindolin-2-yl)piperidine-2,6-dione], the DC50 on IKZF1 (Ikaros) was greater than 30 µM; on IKZF2 (Helios) [2], 0.0111 µM; on IKZF3 (Aiolos), greater than 30 µM. On IKZF2 (Helios) [1], this molecule had an inhibition at 1 µM of 84.8%.

For `O=C1CCC(N2Cc3cc(OC4CCCCC4N4CC(c5ncc(F)cn5)C4)ccc3C2=O)C(=O)N1` (centres unmarked) [Compound 6-B, 3-(5-((2-(3-(5-fluoropyrimidin-2-yl)azetidin-1-yl)cyclohexyl)-oxy)-1-oxoisoindolin-2-yl)piperidine-2,6-dione], the values for the DC50 at IKZF1 (Ikaros), on IKZF2 (Helios) [2] and at IKZF3 (Aiolos) were greater than 30 µM, 0.0299 µM and greater than 30 µM, respectively. This molecule also gave an inhibition at 1 µM against IKZF2 (Helios) [1] of 74.9%.

`O=C1CCC(N2Cc3cc(OC4CCCCC4N4CC(c5ccnc(C(F)(F)F)c5)C4)ccc3C2=O)C(=O)N1` (centres unmarked) [Compound 1-B, 3-(1-oxo-5-((2-(3-(2-(trifluoromethyl)pyridin-4-yl)azetidin-1-yl)cyclohexyl)oxy)isoindolin-2-yl)piperidine-2,6-dione]: the values for the DC50 on IKZF1 (Ikaros), on IKZF2 (Helios) [2] and on IKZF3 (Aiolos) were greater than 30 µM, 0.525 µM and greater than 30 µM, respectively. Moreover, the inhibition at 1 µM against IKZF2 (Helios) [1] turned out to be 32.1%.

For `O=C1CCC(N2Cc3cc(OC4CCCCC4N4CC(c5ccccn5)C4)ccc3C2=O)C(=O)N1` (centres unmarked) [Compound 51-B, 3-(1-oxo-5-((2-(3-(pyridin-2-yl)azetidin-1-yl)cyclohexyl)oxy)isoindolin-2-yl)piperidine-2,6-dione], the DC50 was greater than 30 µM on IKZF1 (Ikaros), 0.321 µM on IKZF2 (Helios) [2] and greater than 30 µM on IKZF3 (Aiolos). The same molecule gave an inhibition at 1 µM at IKZF2 (Helios) [1] of 24%.

For the molecule `O=C1CCC(N2Cc3cc(OC4CCCCC4N4CC(c5ncc(Cl)cn5)C4)ccc3C2=O)C(=O)N1` (centres unmarked) [Compound 26-B, 3-(5-((2-(3-(5-chloropyrimidin-2-yl)azetidin-1-yl)cyclohexyl)oxy)-1-oxoisoindolin-2-yl)piperidine-2,6-dione], the DC50 at IKZF1 (Ikaros) was greater than 30 µM; on IKZF2 (Helios) [2], 0.525 µM; at IKZF3 (Aiolos), greater than 30 µM. This molecule gave an inhibition at 1 µM on IKZF2 (Helios) [1] of 78.4%.

In the case of `O=C1CCC(N2Cc3cc(OC4CCCCC4N4CC(c5c[nH]c6ccccc56)C4)ccc3C2=O)C(=O)N1` (centres unmarked) [Compound 61-B, 3-(5-((2-(3-(1H-indol-3-yl)azetidin-1-yl)cyclohexyl)oxy)-1-oxoisoindolin-2-yl)piperidine-2,6-dione], the DC50 is greater than 30 µM on IKZF1 (Ikaros), 0.026 µM on IKZF2 (Helios) [2] and greater than 30 µM on IKZF3 (Aiolos). The same molecule gave an inhibition at 1 µM at IKZF2 (Helios) [1] of 55.8%.

As to `O=C1CCC(N2Cc3cc(OC4CCCCC4N4CC(c5cccnc5)C4)ccc3C2=O)C(=O)N1` (centres unmarked) [Compound 36-B, 3-(1-oxo-5-((2-(3-(pyridin-3-yl)azetidin-1-yl)cyclohexyl)oxy)isoindolin-2-yl)piperidine-2,6-dione], the half-maximal degradation concentration (DC50) on IKZF1 (Ikaros) is greater than 30 µM; at IKZF2 (Helios) [2] it was 0.188 µM; on IKZF3 (Aiolos) it was greater than 30 µM. This molecule yielded an inhibition at 1 µM on IKZF2 (Helios) [1] of 49.9%.

With `O=C1CCC(N2Cc3cc(OC4CCCCC4N4CC(c5ncccn5)C4)ccc3C2=O)C(=O)N1` (centres unmarked) [Compound 46-B, 3-(1-oxo-5-((2-(3-(pyrimidin-2-yl)azetidin-1-yl)cyclohexyl)oxy)isoindolin-2-yl)piperidine-2,6-dione], the DC50 on IKZF1 (Ikaros) is greater than 30 µM; on IKZF2 (Helios) [2], 0.232 µM; on IKZF3 (Aiolos), greater than 30 µM. Also, at IKZF2 (Helios) [1], 1 µM produced 39% inhibition.

Turning to `COc1cc(C2CN(C3CCCCC3Oc3ccc4c(c3)CN(C3CCC(=O)NC3=O)C4=O)C2)ccn1` (centres unmarked) [Compound 11-B, 3-(5-((2-(3-(2-methoxypyridin-4-yl)azetidin-1-yl)cyclohexyl)oxy)-1-oxoisoindolin-2-yl)piperidine-2,6-dione], the DC50 was greater than 30 µM at IKZF1 (Ikaros), 0.0207 µM at IKZF2 (Helios) [2] and greater than 30 µM on IKZF3 (Aiolos). Besides, the inhibition at 1 µM against IKZF2 (Helios) [1] turned out to be 78.2%.

Consider `O=C1CCC(N2Cc3cc(O[C@H]4CCCC[C@@H]4N4CC(C5CCOCC5)C4)ccc3C2=O)C(=O)N1` (stereo partly drawn) [Compound 1-A, 3-(1-oxo-5-(((1S,2S)-2-(3-(tetrahydro-2H-pyran-4-yl)azetidin-1-yl)cyclohexyl)oxy)isoindolin-2-yl)piperidine-2,6-dione], for which the figures for the 50% degradation concentration (DC50) on IKZF1 (Ikaros), at IKZF2 (Helios) [2] and on IKZF3 (Aiolos) were greater than 30 µM, 0.00889 µM and greater than 30 µM, respectively. At IKZF2 (Helios) [1], at 1 µM the inhibition was 83.4%.

For `O=C1CCC(N2Cc3cc(OC4CCCCC4N4CC(c5ccnc6ccccc56)C4)ccc3C2=O)C(=O)N1` (centres unmarked) [Compound 66-B, 3-(1-oxo-5-((2-(3-(quinolin-4-yl)azetidin-1-yl)cyclohexyl)oxy)isoindolin-2-yl)piperidine-2,6-dione], the DC50 on IKZF1 (Ikaros) was greater than 30 µM; on IKZF2 (Helios) [2] it was 0.0132 µM; at IKZF3 (Aiolos), greater than 30 µM. For the same molecule, testing at 1 µM against IKZF2 (Helios) [1] gave an inhibition of 86.4%.

Take `O=C1CCC(N2Cc3cc(OC4CCCCC4N4CC(c5ccncc5)C4)ccc3C2=O)C(=O)N1` (centres unmarked) [Compound 31-B, 3-(1-oxo-5-((2-(3-(pyridin-4-yl)azetidin-1-yl)cyclohexyl)oxy)isoindolin-2-yl)piperidine-2,6-dione]: the half-maximal degradation concentration (DC50) was greater than 30 µM at IKZF1 (Ikaros), 0.0478 µM on IKZF2 (Helios) [2] and greater than 30 µM on IKZF3 (Aiolos). This molecule gave an inhibition at 1 µM against IKZF2 (Helios) [1] of 74%.

For the molecule `O=C1CCC(N2Cc3cc(OC4CCCCC4N4CC(c5cnccn5)C4)ccc3C2=O)C(=O)N1` (centres unmarked) [Compound 2-B, 3-(1-oxo-5-((2-(3-(pyrazin-2-yl)azetidin-1-yl)cyclohexyl)oxy)isoindolin-2-yl)piperidine-2,6-dione], the 50% degradation concentration (DC50) was greater than 30 µM at IKZF1 (Ikaros), 0.12 µM on IKZF2 (Helios) [2] and greater than 30 µM on IKZF3 (Aiolos). Also, at IKZF2 (Helios) [1], testing at 1 µM gave an inhibition of 63.1%.

Take `COc1ccc(C2CN(C3CCCCC3Oc3ccc4c(c3)CN(C3CCC(=O)NC3=O)C4=O)C2)cn1` (centres unmarked) [Compound 16-B, 3-(5-((2-(3-(6-methoxypyridin-3-yl)azetidin-1-yl)cyclohexyl)oxy)-1-oxoisoindolin-2-yl)piperidine-2,6-dione]: the results for the DC50 on IKZF1 (Ikaros), at IKZF2 (Helios) [2] and on IKZF3 (Aiolos) were greater than 30 µM, 0.0226 µM and greater than 30 µM, respectively. The same molecule had an inhibition at 1 µM against IKZF2 (Helios) [1] of 80.6%.

On to `O=C1CCC(N2Cc3cc(O[C@H]4CCCC[C@@H]4N4CC(n5cccn5)C4)ccc3C2=O)C(=O)N1` (stereo partly drawn) [Compound 81-B, 3-(5-(((1S,2S)-2-(3-(1H-pyrazol-1-yl)azetidin-1-yl)cyclohexyl)oxy)-1-oxoisoindolin-2-yl)piperidine-2,6-dione], for which the DC50 at IKZF1 (Ikaros) was greater than 30 µM; on IKZF2 (Helios) [2], 0.0965 µM; on IKZF3 (Aiolos), greater than 30 µM. On IKZF2 (Helios) [1], the inhibition at 1 µM is 78%.
